These results are taken from patent US20060052390A1, “Treatment of multiple myeloma by p38 MAP kinase and proteasome inhibition” (Scios, Inc., priority 2003, published 2006).

Data set [1] has as its system MM cells. Description: treatment of a patient with multiple myeloma. Format: in vivo. The settings on record: in combination with VELCADE. The source says: A patient is diagnosed with multiple myeloma. The patient presents with MM cells with rapid growth rates, which displace osteoblasts, and disrupting the balance of bone creation and destruction. A number of MM-related cytokines, such as IL-6, VEGF, IL-11, and PGE-2 are detectable. […] MM cell growth is inhibited and MM-related cytokine product is reduced. A patient diagnosed with multiple myeloma receives VELCADE and responds well until VELCADE-resistant MM cells develop. Drug resistant MM cells with rapid growth rates begin to populate the bone marrow of the subject. Elevated levels of MM-related cytokines, such as IL-6, VEGF, IL-11, and PGE-2 are again detectable.

A further data set concerns MAPKAPK-2. Description: MAPKAPK-2 in vitro kinase assay on immunoprecipitates of cell lysates, GST-Hsp27 substrate. In kind it is cell-based. The settings on record: 0.5 μM. On the procedure: (§1) Total cell lysates are immunoprecipitated with anti-MAPKAPK-2 antibody and subjected to in vitro kinase assays using purified GST-Hsp27 as substrate. To examine Hsp27 phosphorylation in MM and transformed B cells, U266, IM9 and RPMI8226 cells are incubated either with DMSO or with 0.5 μM of a p38 MAPK inhibitor and cell lysates are immunoblotted with antibodies to phospho-Hsp27 (Ser 82) and Hsp27.

Data set [2] relates to MM cells. Put plainly: MM cell viability and proliferation with proteasome inhibitor MG-132. Format: cell-based. The conditions noted are these: for proliferation: MG-132 alone.
In another data set the test system is Hsp27. Description: Western blot of heat shock protein levels in MM cells. In kind it is cell-based. As for the experimental part: as §1
Cells are collected at various times and lysates are examined by Western Blot analysis using specific antibodies against particular proteins, with GAPDH as loading control. Specific antibodies to Hsp70 and Hsp90 are from Santa Cruz Biotechnology (Santa Cruz, Calif.).
The Western blots are examined for the total Hsp27 and phospho-Hsp27 levels at three different exposure times. […] This is consistent with observations made previously in MM.1S cells. […] This phenomenon appears to be unique to Hsp27 since a decrease in the levels of Hsp70 or Hsp90 in these same samples is not observed. […] The decrease of phospho-Hsp27 levels in the PS-341-treated cells is commensurate with the decrease of total Hsp27 protein in these cells.
(In general: A western blot detects proteins with antibodies after separation by electrophoresis.)

For a further data set, the system named is HSP-27. Put plainly: immunodetection of phospho-HSP-27 in MM cells and BMSC. Format: cell-based. As for the experimental part:
as §1
U266, IM9 and RPMI8226 cells are incubated with 0.5 μM of the p38 MAPK inhibitor for 1hour and Hsp27 proteins are immunoprecipitated with agarose-conjugated Hsp27 antibody, followed by immunoblotting with anti-phospho Hsp27 (Ser 78) antibody.
(§2) Specific antibodies to p38 MAP kinase are from Santa Cruz Biotechnology (Santa Cruz, Calif.). Antibodies to phospho-p38 MAP kinase (T180/Y182) and phospho-Hsp27 (S82) are from Cell Signaling (Beverly, Mass.). Antibodies to Hsp27 and phospho-Hsp27 (S78) are from Upstate Biotechnology (Lake Placid, N.Y.). Anti-MAPKAPK-2 is from StressGen (San Diego, Calif.) while anti-GAPDH is from Biogenesis Ltd. (Poole, UK).

In another data set the test system is MM/BMSC co-cultures. Put plainly: MM cell proliferation in MM/BMSC co-cultures with MG-132. In kind it is cell-based. The settings on record: MM cells co-cultured with BMSC; FIG. 7. As for the experimental part:
Thus, proteasome inhibitors such as VELCADE might be limiting their own ability to induce apoptosis of MM cells by inducing growth-supporting activity in the microenvironment. Inhibition of the p38 response by BMSC would counteract this support.
For these studies, U266, IM9 and RPMI8226 cells are incubated with DMSO (−) or with 0.5 μM of a disclosed p38 MAPK inhibitor (+) for 1 hour and cell lysates are immunoblotted with antibodies to phospho-p38 and p38 MAP kinase by Western analysis. U266B1 and RPMI8226 are MM cell lines, and IM9 is an Epstein Barr Virus (EBV)-transformed B cell line with characteristics of MM cells. All can be obtained from American Type Culture Collection (ATCC; Rockville, Md.). All cell lines are maintained in RPMI-1640 (ATCC), supplemented with 10% fetal bovine serum (Hyclone; Logan, Utah), 100 units/ml of penicillin, 100 μg/ml streptomycin and 2 mM L-glutamine (Life Technologies, Inc.; Grand Island, N.Y.). BMSC (Cambrex) are maintained in Myelocult H5100 supplemented with 10^−6 M hydrocortisone (Stem Cell Technologies; Vancouver, B.C.), 100 units/ml of penicillin and 100 μg/ml streptomycin. MM cells are usually seeded at a density of 3×10^4 cells/well in 96-well culture plates. For MM co-cultures, BMSC are first seeded at 1.2×10^4 cells/well in a 96-well plate in Myelocult/hydrocortisone medium for 24 hours prior to the addition of MM cells.

A further data set has as its system RANKL mRNA. Put plainly: RANKL mRNA induction in BMSC and MM/BMSC cultures. The settings on record: 100 nM. Format: cell-based. As for the experimental part: In addition, 100 nM of these p38 MAPK inhibitors blocks the weaker induction of RANKL by IL-6 in BMSC.
In data set [3] the test system is calpains, cathepsins, and other lysosomal enzymes. The conditions noted are these: cited from earlier work.
The next data set addresses T1, p38α MAPK (Homo sapiens, UniProt Q16539).
T1 construct: endogenous in cells; host or cells: U266, IM9, RPMI8226 cells; BMSC
Put plainly: p38α phospho-specific immunodetection in MM cells and BMSC. In kind it is cell-based. The settings on record: BMSC treated with MG-132.
Excerpt: as §2

Another data set deals with RPMI8226 cells. Put plainly: apoptosis by Annexin V-PE flow cytometry in RPMI8226 cells. In kind it is cell-based. As for the experimental part: Cells are collected at indicated times and assayed.
(§3) Detection of apoptotic cells was performed by staining with Annexin V-Phycoerythrin (PE) and 7-Amino Actinomycin D (7-AAD) (BD Pharmigen; San Diego, Calif.). Samples are analyzed by dual color flow cytometry using a FACScan laser flow cytometer and Cell Quest software (Becton Dickinson; San Jose, Calif.). 7-AAD is a nucleic acid dye that is used to exclude nonviable cells in flow cytometric assays. Cells that are Annexin V-PE positive and 7-AAD negative are considered early apoptotic. Antibodies to caspase-3, -6, -7, -8, -9, and PARP are from Cell Signaling (Beverly, Mass.).
A general note: A flow cytometer gives signals particle by particle.

The conditions of data set [4]: MM patients; cited from earlier work.
The subject of another data set is caspases and PARP. Put plainly: Western blot of caspase activation and PARP cleavage in MM cells. In kind it is cell-based. The conditions noted are these: RPMI8226; increasing duration of PS-341 treatment. On the procedure:
as §3
Protein lysates from RPMI8226 cells obtained at these time points are collected in parallel and examined for Hsp27 levels, caspase activation and PARP cleavage by Western blot analysis.

The mark [5] stands for this setting: RPMI8226, 10 nM PS-341, 8 hours.

Entries after “also recorded” stand apart in the source; their conditions may differ. Counter-ions that a name gives are not always drawn. Residues, ends and D or L forms follow the SMILES beside them. *: point of attachment. Cbz = O=C(OCc1ccccc1)*

T1 sequence (Q16539 whole entry): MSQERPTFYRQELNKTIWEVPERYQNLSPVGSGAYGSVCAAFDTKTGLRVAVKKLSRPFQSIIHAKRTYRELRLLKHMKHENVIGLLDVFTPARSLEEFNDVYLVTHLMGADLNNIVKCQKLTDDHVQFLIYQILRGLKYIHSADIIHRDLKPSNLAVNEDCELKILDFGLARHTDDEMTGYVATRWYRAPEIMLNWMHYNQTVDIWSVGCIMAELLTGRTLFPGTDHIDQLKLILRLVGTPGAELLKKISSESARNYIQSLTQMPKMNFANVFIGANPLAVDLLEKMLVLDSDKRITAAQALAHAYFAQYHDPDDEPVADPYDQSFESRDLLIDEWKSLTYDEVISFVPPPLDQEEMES

On to `C[C@@H]1CN(Cc2ccc(F)cc2)[C@@H](C)CN1C(=O)c1cc2c(C(=O)C(=O)N(C)C)cn(C)c2cc1Cl` [Compound 57 hydrochloride salt], for which the “sensitivity of the MM cells to VELCADE” value with MM cells [1] (patient with VELCADE-resistant MM) was “restores the sensitivity”. In addition, the MM-related cytokine product entry with MM cells [1] (patient) was “reduced”. In addition, the MM cell growth result in the data set with MM cells [1] (patient, listed as Compound 57 in the hydrochloric salt form) is “again inhibited”.
As to `C[C@@H]1CN(Cc2ccc(F)cc2)[C@@H](C)CN1C(=O)c1cc2c(C(=O)C(=O)N(C)C)cn(C)c2cc1Cl` [Compound 57], in the data set on MAPKAPK-2, the “activity of downstream substrate MAPKAPK-2” value is “suppresses”. Besides, the IM9 proliferation entry in the data set on MM cells [2] (MG-132 in the presence of the p38 MAPK inhibitor, related to the dose of both) was “reduced or entirely blocked”. The “effect on the reduction of MM cell viability and proliferation caused by MG-132” value with MM cells [2] (co-exposure with MG-132, MM cells, FIG. 6) was “enhanced the reduction of MM cell viability and proliferation; also recorded: enhances the anti-proliferative effect”. Moreover, the “total Hsp27” value in the data set on Hsp27 (0.5 μM with 10 nM PS-341, 12 and 16 hours, RPMI8226 and IM9 cells) is given as “enhanced reduction”. Further, the “total Hsp27 levels” value in the data set on Hsp27 (inhibitor alone, even after prolonged incubation) was “does not affect”. Also, the “phosphorylation of HSP-27” value in the data set with HSP-27 (BMSC) and in the data set on HSP-27 (MM cells) was “blocked phosphorylation of HSP-27 completely” in each case. The Hsp27 phosphorylation result with HSP-27 (U266, IM9 and RPMI8226, 0.5 μM, cell lysates or immunoprecipitation) was “inhibits”; in the data set on HSP-27 (both drugs (PS-341 and p38 MAPK inhibitor), all time points), “complete inhibition”. For the same compound, the “effect on the ability of MG-132 to reduce MM cell proliferation” value in the data set on MM/BMSC co-cultures is “enhanced the ability of MG-132 to reduce MM cell proliferation; also recorded: enhances the anti-proliferative effect”. Further, the “induction of RANKL by IL-6” value in the data set on RANKL mRNA (BMSC) is given as “blocks”. In addition, the “induction of RANKL mRNA by TGFβ and IL-1” value in the data set with RANKL mRNA (BMSC and MM/BMSC cultures, FIG. 5) is “blocked this induction”. In addition, in the data set on RANKL mRNA (FIG. 5), the “basal expression of RANKL mRNA” value is given as “blocked”.
As for `CC(C)C[C@@H](C=O)NC(=O)[C@H](CC(C)C)NC(=O)[C@H](CC(C)C)NC(=O)OCc1ccccc1` [MG-132, Carbobenzoxy-L-Leucyl-L-Leucyl-L-Leucinal, reference compound] (Cbz-Leu-Leu-Leu-aldehyde), the proliferation result in the data set with MM cells [2] (HS Sultan MM cells) and with MM cells [2] (U266 MM cells) was “block completely” each time. Besides, the “sensitivity of proliferation to MG-132 alone” value in the data set with MM cells [2] (IM9 MM cells) is reported as “not sensitive”. Further, the “concentrations with activity against calpains, cathepsins and other lysosomal enzymes, above those used in the disclosed experiments” value in [3] is recorded as ≥ 10 -fold. Besides, at p38α MAPK, the “activation of p38” value is recorded as “resulted in activation of p38”.
As for `CC(C)C[C@H](NC(=O)[C@H](Cc1ccccc1)NC(=O)c1cnccn1)B(O)O` [PS-341], the apoptotic cells entry with RPMI8226 cells (10 nM PS-341, 8 hours) is reported as “early apoptotic cells are apparent”. Besides, in the data set with RPMI8226 cells (10 nM PS-341, 12 hours), the apoptotic cells result was “about half the cells”. In the data set with RPMI8226 cells (10 nM PS-341, 16 hours), the apoptotic cells result is “most”. Further, in data set [4], the “clinically observed circulating concentration” value was 40 to 100 nM. Further, the Hsp27 protein levels result with Hsp27 (RPMI8226, 10 nM PS-341, 12 and 16 hours) is listed as “reduced”. In addition, in the data set with Hsp27 (setting [5]), the Hsp27 expression entry is “induced” and the Hsp70 expression result is listed as “induced”. Further, the “decrease in the levels of Hsp70 or Hsp90” value in the data set on Hsp27 (RPMI8226, 10 nM PS-341, same samples) is listed as “not observed”. For the same compound, in the data set with caspases and PARP, the PARP cleavage entry is recorded as “proportional increase”; the “activation or cleavage of procaspases-8, -9, -3, -6, and -7” value is given as “successively increasing activation or cleavage”.
